One series has as its system RS4; 11 cells. Description: Test 2: inhibition of cell proliferation, RS4; 11. In kind it is cell-based. The note with it: for IC50: Homo sapiens, RS4, 11 cells, cultured 7 days, PrestoBlue; for cell proliferation inhibition activity (in words): summary of Test 2 (RS4; 11 and MOLM-13). The protocol: (§1) Test for Evaluating the Inhibition of Cell Proliferation RS4; 11 cells were obtained from American Type Culture Collection (ATCC). […] MOLM-13 cells were separately obtained from DSMZ (Deutsche Sammlung von Mikroorganismen und Zeilkulturen GmbH). […] The cells were plated to a 96-well plate in 2000 cells/well, each test compound was added thereto to adjust the final concentration of DMSO to 0.1% of DMSO, and the cells were cultured for 7 days. After the cultivation, the cell viability was calculated with PrestoBlue™ Cell Viability Reagent (Invitrogen, A13261).

Another series deals with MOLM-13 cells. Description: Test 2: inhibition of cell proliferation, MOLM-13. The class given is cell-based. The note with it: Homo sapiens, cultured 7 days, PrestoBlue. How it is done:
as §1

The target of series [1] is hERG (human Ether-a-go-go Related Gene) (Homo sapiens (Human), UniProt Q12809). Nature of the series: Test 4: hERG inhibition (QPatch HT). The note with it: for gap between RS4; 11 proliferation IC50 and hERG current IC50: summary of Test 4 table.
Series [2] concerns the target Menin-MLL binding (His-Menin1-615, MLL1-172-FLAG) (Homo sapiens (Human), UniProt O00255). Nature of the series: Test 1: inhibition of the Menin-MLL binding (HTRF). The note with it: summary of Test 1 table. How it is done: Test 1: Test for Evaluating the Inbinition of the Menin-MLL Binding
After the incubation, the signal was detected with RUBYstar (BMG LABTECH).

The subject of series [3] is HOXA9 mRNA in MV4; 11 cells. Description: Test 3: inhibition of mRNA transcription, HOXA9. In kind it is cell-based. The settings on record: 20 to 24 hours, fitted with GAPDH. How it is done: (§2) Test 3: Test for the Inhibition of mRNA Transcription with Test Compounds
(§3) MV4; 11 cells were obtained from American Type Culture Collection (ATCC). […] After the incubation, the total RNA was extracted from the cells with RNeasy™ Mini Kit (QIAGEN, 74106), and cDNA was synthesized with Superscript™ VILO™ cDNA Synthesis Kit (Invitrogen, #11754250). By using TaqMan™ Gene Expression Master Mix (Applied Biosystems, 4369016) and TaqMan™ probe (Applied Biosystems), the expression level of mRNA was quantified from the obtained cDNA with 7900HT (Applied Biosystems). The expression level of each obtained gene (MEIS1 and HOXA9) was fitted with the expression level of mRNA of GAPDH.

In series [4] the test system is MEIS1 mRNA in MV4; 11 cells. Description: Test 3: inhibition of mRNA transcription, MEIS1. In kind it is cell-based. The note with it: for mRNA transcription inhibition activity (in words): MEIS1 and HOXA9, MV4, summary of Test 3; for mRNA at 1 μM (% control) MEIS1: MV4, 1 μM, 20 to 24 hours, fitted with GAPDH. The protocol:
as §2, §3

Sequence of hERG (human Ether-a-go-go Related Gene) (Q12809 whole entry): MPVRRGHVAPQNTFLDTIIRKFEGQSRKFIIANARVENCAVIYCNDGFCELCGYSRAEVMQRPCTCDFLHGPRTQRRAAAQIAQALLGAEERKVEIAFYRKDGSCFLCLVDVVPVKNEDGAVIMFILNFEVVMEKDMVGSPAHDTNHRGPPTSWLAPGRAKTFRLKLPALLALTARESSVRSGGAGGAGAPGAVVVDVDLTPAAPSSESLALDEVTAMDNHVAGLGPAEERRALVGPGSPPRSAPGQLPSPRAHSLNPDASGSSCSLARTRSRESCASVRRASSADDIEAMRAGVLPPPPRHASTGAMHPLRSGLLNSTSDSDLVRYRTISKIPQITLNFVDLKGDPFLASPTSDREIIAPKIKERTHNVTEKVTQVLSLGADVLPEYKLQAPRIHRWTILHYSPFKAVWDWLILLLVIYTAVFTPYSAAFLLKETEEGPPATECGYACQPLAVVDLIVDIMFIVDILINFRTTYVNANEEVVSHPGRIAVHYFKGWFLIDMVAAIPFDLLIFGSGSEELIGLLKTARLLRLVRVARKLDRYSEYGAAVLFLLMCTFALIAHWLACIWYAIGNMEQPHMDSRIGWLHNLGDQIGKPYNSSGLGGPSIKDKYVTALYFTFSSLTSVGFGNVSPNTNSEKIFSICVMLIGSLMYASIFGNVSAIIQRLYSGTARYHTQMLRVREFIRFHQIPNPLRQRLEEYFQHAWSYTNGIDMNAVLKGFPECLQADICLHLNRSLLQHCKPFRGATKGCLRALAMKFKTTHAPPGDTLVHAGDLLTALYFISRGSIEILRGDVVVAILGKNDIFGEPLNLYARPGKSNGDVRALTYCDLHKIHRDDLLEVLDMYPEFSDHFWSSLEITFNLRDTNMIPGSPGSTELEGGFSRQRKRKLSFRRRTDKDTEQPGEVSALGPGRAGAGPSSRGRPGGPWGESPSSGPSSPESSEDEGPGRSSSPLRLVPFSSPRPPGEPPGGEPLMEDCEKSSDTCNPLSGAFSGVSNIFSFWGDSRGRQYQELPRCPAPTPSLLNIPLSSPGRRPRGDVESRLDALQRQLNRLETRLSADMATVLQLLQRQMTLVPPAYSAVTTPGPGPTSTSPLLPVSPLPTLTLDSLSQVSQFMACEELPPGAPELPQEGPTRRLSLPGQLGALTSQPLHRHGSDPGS
Sequence of Menin-MLL binding (His-Menin1-615, MLL1-172-FLAG) (O00255 other isoform, or with tags, fused parts or gaps): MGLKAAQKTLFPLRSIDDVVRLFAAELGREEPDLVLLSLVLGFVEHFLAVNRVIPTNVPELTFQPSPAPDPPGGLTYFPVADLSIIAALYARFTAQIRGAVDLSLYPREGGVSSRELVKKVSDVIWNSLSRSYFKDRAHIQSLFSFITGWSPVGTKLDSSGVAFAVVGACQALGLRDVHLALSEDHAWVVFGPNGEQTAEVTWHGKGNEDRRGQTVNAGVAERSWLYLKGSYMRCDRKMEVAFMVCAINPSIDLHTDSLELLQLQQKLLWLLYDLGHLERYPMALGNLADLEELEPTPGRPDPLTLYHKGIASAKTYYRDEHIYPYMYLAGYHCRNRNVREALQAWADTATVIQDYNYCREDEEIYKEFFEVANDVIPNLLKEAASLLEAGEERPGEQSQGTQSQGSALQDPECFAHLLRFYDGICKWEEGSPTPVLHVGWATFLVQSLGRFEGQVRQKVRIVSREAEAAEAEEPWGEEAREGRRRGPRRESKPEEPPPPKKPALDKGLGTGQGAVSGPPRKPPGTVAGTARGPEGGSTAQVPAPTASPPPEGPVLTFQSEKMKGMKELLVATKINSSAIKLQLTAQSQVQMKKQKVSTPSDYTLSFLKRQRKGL

With `CC(C)N(C(=O)c1cc(F)ccc1Oc1cncnc1N1CC2(CCN(C(=O)[C@H]3N[C@H]4CC[C@@H]3[C@@H](F)[C@H]4CC3CC3)CC2)C1)C(C)C` [Example 14, 2-[(4-{7-[(1S,3S,4S,5S,6S)-6-(cyclopropylmethyl)-5-fluoro-2-azabicyclo[2.2.2]octane-3-carbonyl]-2,7-diazaspiro[3.5]nonan-2-yl}pyrimidin-5-yl)oxy]-5-fluoro-N,N-di(propan-2-yl)benzamide], in the series with RS4; 11 cells, the half-inhibitory concentration (IC50) is 20 nM and the “cell proliferation inhibition activity (in words)” value is reported as “potent”. The compound also came in with an IC50 with MOLM-13 cells of 40 nM. Further, the “hERG/RS4; 11” value in series [1] (hERG IC50 divided by RS4, 11 proliferation IC50) came out at 557. Besides, in series [1], the “gap between RS4; 11 proliferation IC50 and hERG current IC50” value was “more than 100 fold”.

As to “2-[(4-{6-[(1R,3S,4R)-2-azabicyclo[2.2.2]octane-3-carbonyl]-2,6-diazaspiro[3.3]heptan-2-yl}pyrimidin-5-yl)oxy]-5-fluoro-N,N-di(propan-2-yl)benzamide [Example 11]”, the “Menin-MLL binding inhibition activity (in words)” value in series [2] was “potent”. Further, in series [3], the “mRNA at 1 μM (% control) HOXA9” value came to 36.5 % control. In addition, in the series with RS4; 11 cells, the “cell proliferation inhibition activity (in words)” value is “potent”. Besides, in series [4], the “mRNA transcription inhibition activity (in words)” value is “showed the mRNA transcription inhibition activity” and the “mRNA at 1 μM (% control) MEIS1” value is reported as 13.1 % control. Also, the IC50 in series [1] (read-out: hERG inhibition IC50, CHO cell strain stably expressing hERG) is over 10000 nM. Further, the “gap between RS4; 11 proliferation IC50 and hERG current IC50” value in series [1] was “more than 100 fold”.

For `C=C1C[C@@H]2CC[C@H]1[C@@H](C(=O)N1CC3(C1)CN(c1ncncc1Oc1ccc(F)cc1C(=O)N(C(C)C)C(C)C)C3)N2` [Example 7, 5-fluoro-2-[(4-{6-[(1S,3S,4R)-5-methylidene-2-azabicyclo[2.2.2]octane-3-carbonyl]-2,6-diazaspiro[3.3]heptan-2-yl}pyrimidin-5-yl)oxy]-N,N-di(propan-2-yl)benzamide], the “mRNA at 1 μM (% control) HOXA9” value in series [3] amounted to 37.9 % control. The compound also registered an IC50 with RS4; 11 cells of 10 nM. In series [4], the “mRNA transcription inhibition activity (in words)” value is “showed the mRNA transcription inhibition activity” and the “mRNA at 1 μM (% control) MEIS1” value was determined as 12.7 % control. Besides, in the series on MOLM-13 cells, 30 nM corresponded to half-maximal inhibition (IC50).

The values above are taken from patent US11369605B2, “Optically active azabicyclo ring derivative” (priority 2018, dated 2022).
